Results published in patent US20070203224A1, “SMALL-MOLECULES FOR TREATING CANCER AND ABNORMAL CELL PROLIFERATION DISORDERS” (University of Southern California, priority 2006, published 2007).

Tests used:
[1] = test system: HCT16 p53+/+ (wild type) colon cancer cells; assay: MTT assay (cytotoxicity); format: cell-based; details: Homo sapiens, 72 hours exposure, read-out: Anticancer Activity (IC50)
Description: (§1) The cytotoxicity of the several representative compounds have been evaluated using MTT assay. Briefly, cells were seeded in 96-well microtiter plates (HCT16 p53+/+ (wild type), HCTp53−/− (p53 negative) colon cancer cells and MD-MBA-435 (p53 mutant) breast cancer cells at 4,000 cells/well) and allowed to attach. Cells were subsequently treated with a continuous exposure to the corresponding drug for 72 hours. A 3-(4,5-dimethylthiazol-2-yl)-2,5-diphenyltetrazolium bromide solution (at a final concentration of 0.5 mg/mL) was added to each well, and cells were incubated for 4 hours at 37° C. After removal of the medium, DMSO was added and the absorbance was read at 570 nm. All assays were done in triplicate. The IC50 was then determined for each drug from a plot of log (drug concentration) versus percentage of cell kill.

[2] = test system: HCTp53−/− (p53 negative) colon cancer cells; assay: MTT assay (cytotoxicity); format: cell-based; details: Homo sapiens, 72 hours exposure, read-out: Anticancer Activity (IC50)
Description: as §1

[3] = test system: MCF7 breast cells; assay: MTT assay (cytotoxicity); format: cell-based; details: Homo sapiens, read-out: Anticancer Activity (IC50)
Description: [The procedure below names another cell line; the source lists this cell line under the same test.] as §1

[4] = test system: MD-MBA-435 (p53 mutant) breast cancer cells; assay: MTT assay (cytotoxicity); format: cell-based; details: Homo sapiens, 72 hours exposure, read-out: Anticancer Activity (IC50)
Description: as §1

[5] = test system: NIH 189 mouse fibroblast cells; assay: MTT assay (cytotoxicity); format: cell-based; details: read-out: Anticancer Activity (IC50)
Description: [The procedure below names another organism; the source lists this organism under the same test.] as §1

[6] = test system: NIH3T3 mouse fibroblast cells; assay: MTT assay (cytotoxicity); format: cell-based; details: read-out: Anticancer Activity (IC50)
Description: [The procedure below names another organism; the source lists this organism under the same test.] as §1

[7] = test system: HCT116p53+/+ cells; assay: Cell cycle analysis by propidium iodide DNA staining; format: cell-based, human; details: 1 μM
Description: Cell cycle perturbations induced by the representative compounds were analyzed by propidium iodide DNA staining. […] At the end of each treatment time, cells were collected and washed with PBS after a gentle centrifugation at 200×g for 5 minutes. Cells were thoroughly resuspended in 0.5 mL of PBS and fixed in 70% ethanol for at least 2 hours at 4° C. Ethanol-suspended cells were then centrifuged at 200×g for 5 minutes and washed twice in PBS to remove residual ethanol. For cell cycle analysis, the pellets were suspended in 1 mL of PBS containing 0.02 mg/mL of propidiumiodide, 0.5 mg/mL of DNase-free RNase A and 0.1% of Triton X-100 and incubated at 37° C. for 30 minutes. Cell cycle profiles were obtained using a FACScan flowcytometer (Becton Dickinson, San Jose, Calif.) and data were analyzed by ModFit LT software (Verity Software House, Inc., Topsham, Me.).

[8] = test system: MDA-MB-435 cells; assay: Drug treatment of tumor xenografts in athymic nude mice; format: in vivo
Description: 50 male athymic nude (nu/nu) mice (Charles River Laboratories, Wilmington, USA) were used for in vivo testing. The animals were fed ad libitum and kept in air-conditioned rooms at 20±2° C. with a 12 h light-dark period. Animal care and manipulation were in agreement with the University of Southern California (USC) institutional guidelines, which are in accordance with the Guidelines for the Care and Use of Laboratory Animals.
MDA-MB-435 cells from in vitro cell culture were inoculated s.c. in both flanks of athymic nude mice (2×10^6 cells/flank) under aseptic conditions. Tumor growth was assessed by biweekly measurement of tumor diameters with a Vernier caliper (length×width). Tumor weight was calculated according to the formula: TW (mg)=tumor volume (mm^3)=d^2×D/2, where d and D are the shortest and longest diameters, respectively. Cells were allowed to grow to an average volume of 100 mm^3. Animals were then randomly assigned for control and treatment groups to receive control vehicle or CT19 (10 and 20 mg/kg, dissolved in sesame oil) via i.p. injections once a day for 5 days. Treatment of each animal was based on individual body weight. After 5-day treatment, the tumor volumes in each group were measured once a week for four weeks. Treated animals were checked daily for treatment toxicity/mortality.
Assays were set up in triplicates and the results were expressed as means±SD. Statistical analysis and P-value determination were done by two-tailed paired t test with a confidence interval of 95% for determination of the significance differences between treatment groups. P<0.05 were considered to be significant. ANOVA was used to test for significance among groups. The SAS statistical software package (SAS institute) was used for statistical analysis.
The in vivo efficacy of CT19 was evaluated in nude mice inoculated with human breast MDA-MB-435 cells. Animals were treated with a daily i.p. injections of saline (controls) and CT19 at 10 mg/kg or 20 mg/kg. After five-days of dosing, the drug treatment was discontinued and the animals were monitored […].

[9] = test system: panel of human cancer cell lines; assay: Anticancer activity in a panel of human cancer cell lines; format: cell-based; details: result in words
Description: Anticancer activities and cell cycle perturbations induced by a number of representative compounds have been evaluated using MTT and cell cycle analysis assays.
as §1

[10] = 10 mg/kg or 20 mg/kg daily i.p. for five days

| Structure (SMILES) | IC50 [1] | IC50 [2] | IC50 [3] | IC50 [4] | other results |
| --- | --- | --- | --- | --- | --- |
| C=C1C(=O)O[C@@H](c2ccccc2)C1c1ccccc1 (stereo in doubt) [CT14, (4S,5R)-3-methylene-4,5-diphenyl-dihydrofuran-2(3H)-one] | 2 ± 1 µM | 8 ± 1 µM | 2 µM | 2 ± 2 µM | IC50 [5]: 1 µM; IC50 [6]: 2 µM; G2/M arrest [7]: approximately 75%; % cells in G0/G1 ([7]; after 12 h): 11.9%; % cells in G2/M ([7]; after 12 h): 75.8%; % cells in S ([7]; after 12 h): 12.4%; % cells in G0/G1 ([7]; after 24 h): 12.6%; % cells in G2/M ([7]; after 24 h): 74.5%; % cells in S ([7]; after 24 h): 12.8% |
| C=C(C(=O)OC)[C@H](c1ccccc1)[C@@H](O)c1ccc(C#N)cc1 (stereo in doubt) [CT21, (3S,4R)-methyl 4-(4-cyanophenyl)-4-hydroxy-2-methylene-3-phenylbutanoate] | 2 ± 1 µM | 13 ± 2 µM | 3 µM | 8 ± 2 µM |  |
| C=C1C(=O)O[C@@H](c2ccccc2)[C@@H]1C [CT10] | 1 ± 1 µM | 23 ± 2 µM |  | 5 ± 3 µM |  |
| C=C1C(=O)O[C@@H](c2ccc([N+](=O)[O-])cc2)[C@H]1c1ccc(OC)cc1 [CT11] | 2 ± 1 µM | 9 ± 5 µM | 3 µM | 2 ± 2 µM |  |
| C=C1C(=O)O[C@@H](c2ccc([N+](=O)[O-])cc2)[C@@H]1c1ccc(C)cc1 [CT12] | 4 ± 1 µM | 7 ± 5 µM | 6 µM | 3 ± 2 µM |  |
| C=C1C(=O)O[C@@H](c2ccccc2)[C@H]1c1ccccc1 [CT13, (4S,5R)-3-methylene-4,5-diphenyl-dihydrofuran-2(3H)-one] | 3 ± 3 µM | 11 ± 2 µM |  | 2 ± 2 µM |  |
| C=C1C(=O)O[C@@H](c2ccc([N+](=O)[O-])cc2)[C@H]1c1ccc(C)cc1 [CT15] | > 20 µM | > 20 µM |  | > 20 µM |  |
| C=C1C(=O)O[C@@H](c2ccc([N+](=O)[O-])cc2)[C@H]1c1ccc(Cl)cc1 [CT16] | 4 ± 2 µM | 18 ± 1 µM | < 1 µM | 3 ± 2 µM |  |
| C=C1C(=O)O[C@@H](c2cc(OC)c(OC)c(OC)c2-c2cc(OC)c(OC)c(OC)c2)[C@H]1C [CT19] | 1 ± 1 µM | 4 µM | 4 µM | 5 µM | Apparent toxicity [8, 10]: without apparent toxicity; Tolerability [8, 10]: well tolerated; Tumor burden in breast xenografts [8, 10]: significantly reduced tumor burden; Tumor growth (tumor weight) ([8]; 20 mg/kg daily i.p. for five days, monitored five weeks, p<0.05): significantly reduced tumor growth |
| COc1cc(-c2c(C3OC(=O)C(C)=C3C)cc(OC)c(OC)c2OC)cc(OC)c1OC (stereo not shown) [CT20] | 3 µM | > 20 µM | > 20 µM | > 20 µM |  |
| C=C(C(=O)OC)[C@@H](c1ccccc1)[C@H](O)c1ccc([N+](=O)[O-])cc1 [CT22] | 1 ± 1 µM | 12 ± 4 µM | 3 µM | 7 ± 5 µM | IC50 [5]: 3 µM; IC50 [6]: 3.5 µM |
| COC(=O)/C(=C/c1ccccc1)CS(=O)(=O)c1ccc(C)cc1 [CT23, (Z)-methyl 3-phenyl-2-(tosylmethyl)acrylate] | 2 ± 2 µM | 5 µM | 15 µM | 6 ± 3 µM | Anticancer activity in a panel of human cancer cell lines [9]: potent anticancer activity at low micromolar concentration |
